# Assay results from article PMC9781827, “Isolation and Identification of Anti-Inflammatory Peptide from Goose Blood Hydrolysate to Ameliorate LPS-Mediated Inflammation and Oxidative Stress in RAW264.7 Macrophages” (Molecules, 2022).
# What was measured:
# Format in all cases: cell-based
# NO = NO level in LPS-mediated RAW264.7 macrophages culture medium (spectrophotometric kit); conditions: LPS group (CTRL 6.47 ± 1.29), mean ± S.D., n = 3
# Procedure: (§1) The culture medium was collected and centrifuged at 3000× g for 10 min. Then, the inflammatory cytokines levels of TNF-α (MB-50051A), IL-1β (MB-50064B) and IL-6 (MB-50054A) in the culture medium were determined with ELISA kits (Jiangsu Enzyme marker Biotechnology Co., Ltd., Yancheng, China). […] (7) Add 50 μL of stop solution to each well, and measure its absorbance value at 450 nm wavelength. The activities of SOD, GSH-Px and the levels of ROS and Nitric oxide (NO) in macrophages were determined with spectrophotometric kits. […] The absorbance value of miscible liquid was measured at 450 nm wavelength by a multifunctional microplate reader; GSH-Px: 0.2 mL of sample was mixed with 0.2 mL GSH-Px (1 mmol/L) and performed at 37 °C for 5 min. […] The absorbance value was measured at 412 nm wavelength by a multifunctional microplate reader; ROS: DCFH-DA probe was added directly to serum-free medium: DCFH-DA was generally diluted with serum-free medium at a final concentration of 10 µM at 1:1000. […] In general, obvious green fluorescence can be observed in positive control cells after 20 min of stimulation. […] It can also be detected according to FITC fluorescence detection conditions. The results were expressed as fluorescence values.
# ROS = ROS level in LPS-mediated RAW264.7 macrophages (DCFH-DA probe); conditions: stimulation with LPS alone; mean ± S.D., n = 3
# Procedure: as §1
# iNOS = assay: Western blot of iNOS in RAW264.7 macrophages; conditions: LPS group vs CTRL group, p < 0.05
# Procedure: RAW264.7 macrophages were washed with cold PBS and homogenized with two small magnetic beads (2 mm) and 10× volume of RIPA buffer containing 1% protease inhibitors for 60 s. Then the supernatant was collected after centrifuging at 12,000× g for 10 min at 4 °C, which was the total protein solution. The concentration of protein in the total protein solution was measured by BCA kits. The protein concentration of the supernatant was diluted to 2.0 mg/mL and mixed with an equal volume of buffer (0.25 mol/L Tris-HCl buffer, pH 6.8, containing 4% SDS and 20% glycerol with 20 mmol/L 2-mercaptoethanol). The stacking gel and separating gel were made of 5% (w/v) and 10% (w/v) polyacrylamide, respectively. Electrophoresis was carried out at 80 V until the dye front reached the bottom of the stacking gel, and the gel was run at 120 V until the dye front reached the bottom of the separating gel (165-8001, Bio-Rad Mini-PROTEAN Tetra Electrophoresis System). The PVDF membrane was covered on the gel and transferred membrane at 300 mA for 30 min. The membrane was moved into a decolorization shaker with 5% skim milk (0.5% TBST) and blocked for 1 h at room temperature. […] The film was scanned and archived, processed and decolorized by Photoshop, and the optical density value of the target band was analysed by ImageJ software processing system.
substance,measurement,setting,value
lipopolysaccharide [LPS],level of NO,NO,28.63 ± 2.48 μM/L
same,levels of ROS,ROS,61.96 ± 2.27 U/mg prot
same,protein expression level of iNOS,iNOS,higher
